# Experimental data published in PubChem BioAssay (NCI).
#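 96-well plates; 48 h exposure; 5 concentrations. Endpoints by linear interpolation between flanking doses. Not reached: highest tested concentration assigned. At the GI50, growth is halved. TGI denotes the concentration required for complete inhibition of growth.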
# Experiments:
# Assay in all cases: NCI tumour cell line growth inhibition, 48 h
# [1] = tested on: NCI-H226 lung
# [2] = tested on: SN12C renal
# [3] = tested on: OVCAR-5 ovarian
# [4] = tested on: COLO 205 colon
# [5] = tested on: A549 NSCLC
# [6] = tested on: TK-10 renal
# [7] = tested on: MDA-MB-435
# [8] = tested on: U251 CNS
# [9] = tested on: SK-MEL-5 melanoma
# [10] = tested on: NCI-H23 lung
SMILES,GI50 [1] [µM],TGI [1] [µM],GI50 [2] [µM],TGI [2] [µM],GI50 [3] [µM],TGI [3] [µM],GI50 [4] [µM],TGI [4] [µM],GI50 [5] [µM],TGI [5] [µM],GI50 [6] [µM],TGI [6] [µM],GI50 [7] [µM],TGI [7] [µM],GI50 [8] [µM],TGI [8] [µM],GI50 [9] [µM],TGI [9] [µM],GI50 [10] [µM],TGI [10] [µM]
Cc1ccc2[nH]cc(-c3nc(-c4c[nH]c5ncccc45)cs3)c2c1,> 100,> 100,> 100,> 100,> 100,> 100,0.349,> 100,> 100,> 100,> 100,> 100,> 100,> 100,> 100,> 100,> 100,> 100,> 100,> 100
O=C1C(Br)=CC2([N+](=O)[O-])CCNc3c(O)c4c5c(c3C2=C1Br)=NCCC=5C=N4 (stereo unspecified),–,6.79,–,5.52,–,2.39,–,0.133,–,16.3,–,–,–,–,–,3.96,–,1.33,–,3.41
COc1ccc2[nH]c(C(=O)N3CC(CCl)c4ccc(N)cc43)cc2c1 (stereo unspecified),–,> 100,–,1.62,–,> 30.1,–,–,–,> 86.9,–,> 100,–,0.405,–,> 31.6,–,0.195,–,0.501
CC(=O)O[C@H]1CC[C@@]2(C)C(=CC[C@@H]3[C@@H]2CC[C@]2(C)C(c4cccnc4)=CC[C@@H]32)C1,17.7,> 100,17.2,> 100,18.7,> 100,5.1,> 100,10.4,> 100,29.8,> 100,3.03,> 100,4.47,> 100,2.89,10.1,6.6,> 100
N/N=C(\C(=O)Nc1c(Cl)cc([N+](=O)[O-])cc1Cl)C(c1cnc2ccc([N+](=O)[O-])cc2n1)[N+](=O)[O-] (stereo unspecified),–,> 100,–,> 100,–,> 100,–,> 100,–,> 100,–,> 100,–,–,–,> 100,–,> 100,–,> 100
CC(=O)OC(Cc1cc(C=C(C(F)(F)F)C(F)(F)F)cc(C)n1)(C(F)(F)F)C(F)(F)F,–,3.49,–,3.16,–,4.58,–,2.99,–,12.4,–,6.7,–,2.83,–,4.74,–,2.82,–,3.32
CCCC/C=C1\CCC(CN2CCCCC2)C1=O (stereo unspecified),–,63.1,–,25.9,–,49.9,–,29,–,52.9,–,28.1,–,> 100,–,44.1,–,42.6,–,45.1
COC(=O)/C=C\Sc1ccn(/C=C\C(=O)OC)c(=S)n1,–,–,–,82.9,–,> 100,–,> 100,–,50.7,–,51.1,–,86.6,–,39.9,–,80.6,–,64.3
COc1ccc2c3c1OC1CC(O)C=CC31CCN(C)C2 (stereo unspecified),–,> 150,–,> 150,–,> 150,–,> 150,–,> 150,–,–,–,–,–,> 150,–,> 150,–,> 150
CN(C)c1ccc(N2C(=S)SC(=Nc3ccccc3)C2=Nc2ccccc2)cc1,–,> 100,–,> 100,–,> 100,–,> 100,–,–,–,–,–,> 100,–,> 100,–,> 100,–,> 100
O=C(Nc1ccccc1F)c1c(O)nc2sccn2c1=O,–,> 10,–,> 10,–,> 10,–,> 10,–,> 10,–,> 10,–,> 10,–,> 10,–,> 10,–,> 10
